Measurements from patent US20040235906A1, “Substituted amine derivatives and their use as monoamine neurotransmitter re-up-take inhibitors” (priority 2001, published 2004).
Counter-ions that a name gives are not always drawn. Like-named read-outs stand apart in the source and are kept apart here.

How the values were obtained:
[1] = biological target: T1, reuptake of dopamine(DA) in synaptosomes (Rattus norvegicus, UniProt P23977); assay: Inhibition of dopamine (DA) reuptake in synaptosomes; type: biochemical
T1 construct: in synaptosomes as described in WO 97/16451; from tissue
T1 sequence (P23977 whole entry): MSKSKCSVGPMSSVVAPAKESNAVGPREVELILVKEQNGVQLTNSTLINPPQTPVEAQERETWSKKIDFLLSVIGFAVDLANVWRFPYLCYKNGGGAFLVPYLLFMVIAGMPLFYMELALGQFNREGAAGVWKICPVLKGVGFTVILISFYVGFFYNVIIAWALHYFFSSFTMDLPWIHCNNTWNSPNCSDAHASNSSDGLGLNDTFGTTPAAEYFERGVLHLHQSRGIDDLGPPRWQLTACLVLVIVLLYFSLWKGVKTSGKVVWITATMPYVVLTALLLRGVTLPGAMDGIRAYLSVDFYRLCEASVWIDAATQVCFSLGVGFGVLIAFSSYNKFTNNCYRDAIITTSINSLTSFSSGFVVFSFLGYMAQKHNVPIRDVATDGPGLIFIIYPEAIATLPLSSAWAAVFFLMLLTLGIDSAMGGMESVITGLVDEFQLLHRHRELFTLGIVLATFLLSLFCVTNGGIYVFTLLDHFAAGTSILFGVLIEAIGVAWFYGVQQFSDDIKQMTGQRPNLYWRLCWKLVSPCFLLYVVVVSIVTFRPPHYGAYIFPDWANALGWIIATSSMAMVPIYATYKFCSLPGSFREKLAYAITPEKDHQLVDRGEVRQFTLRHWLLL
Protocol: (§1) A number of compounds were tested for their ability to inhibit the reuptake of the monoamine neurotransmitters dopamine(DA) noradrenaline(NA) and serotonine(5-HT) in synaptosomes as described in WO 97/16451.
(§2) The test values are given as IC50 (the concentration (μM) of the test substance which inhibits the specific binding of ^3H-DA, ^3H-NA, or ^3H-5-HT by 50%).

[2] = biological target: T2, reuptake of serotonine(5-HT) in synaptosomes (Rattus norvegicus, UniProt P31652); assay: Inhibition of serotonine (5-HT) reuptake in synaptosomes; type: biochemical
T2 construct: in synaptosomes as described in WO 97/16451; from tissue
T2 sequence (P31652 whole entry): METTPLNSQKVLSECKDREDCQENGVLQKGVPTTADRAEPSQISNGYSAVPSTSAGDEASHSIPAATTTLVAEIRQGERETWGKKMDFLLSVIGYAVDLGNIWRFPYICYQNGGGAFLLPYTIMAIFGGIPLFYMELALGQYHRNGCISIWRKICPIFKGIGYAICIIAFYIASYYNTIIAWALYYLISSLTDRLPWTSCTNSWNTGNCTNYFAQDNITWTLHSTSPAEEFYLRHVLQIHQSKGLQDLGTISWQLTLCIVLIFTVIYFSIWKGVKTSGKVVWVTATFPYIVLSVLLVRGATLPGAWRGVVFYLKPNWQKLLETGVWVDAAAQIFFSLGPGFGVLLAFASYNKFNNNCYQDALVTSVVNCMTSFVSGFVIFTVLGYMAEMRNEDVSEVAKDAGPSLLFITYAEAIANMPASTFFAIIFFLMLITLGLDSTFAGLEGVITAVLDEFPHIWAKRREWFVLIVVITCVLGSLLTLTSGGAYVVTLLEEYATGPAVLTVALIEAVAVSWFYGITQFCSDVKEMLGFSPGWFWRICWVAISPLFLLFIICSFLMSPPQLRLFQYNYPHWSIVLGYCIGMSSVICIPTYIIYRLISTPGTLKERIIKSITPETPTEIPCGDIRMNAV
Protocol: as §1, §2

[3] = synaptosomes, 3H-DA, read-out: DA-uptake IC50

SMILES	melting point [°C]	IC50 [1] [nM]	IC50 [2] [nM]	IC50 [1, 3] [nM]
CN1C2CCC1[C@H](COc1ccc(Cl)c(Cl)c1)CC2 (some centres unmarked) (as salt: fumarate)	176 to 180			
CN1C2CCC1[C@H](COc1ccc(Cl)c(Cl)c1)[C@@H](c1ccc(Cl)c(Cl)c1)C2 (stereo partly drawn) (as salt: fumaric acid salt) [Compound 15a, (2R,3S)-2-(3,4-Dichloro-phenoxymethyl)-3-(3,4-dichloro-phenyl)-8-methyl-8-aza-bicyclo[3.2.1]octane]	215.1 to 217.2			
CC(C)[C@@H]1CC2CCC([C@@H]1COc1ccc(Cl)c(Cl)c1)N2C (stereo partly drawn) (as salt: fumaric acid salt) [Compound 16, (2R,3S)-2-(3,4-Dichloro-phenoxymethyl)-3-(2-propyl)-8-methyl-8-aza-bicyclo[3.2.1]octane fumaric acid salt]	152.3 to 154.5			
CN1C2CCC1[C@H](COc1ccc(Cl)c(Cl)c1)[C@@H](c1ccccc1)C2 (stereo partly drawn) [Compound 13a, (2R,3S)-2-(3,4-Dichlorophenoxymethyl)-8-methyl-3-phenyl-8-aza-bicyclo[3.2.1]octane]		540	0.4	
CN1C2CCC1[C@H](COc1ccc(Cl)c(Cl)c1)[C@@H](c1ccc(Cl)c(Cl)c1)C2 (stereo partly drawn) [Compound 15a, (2R,3S)-2-(3,4-Dichloro-phenoxymethyl)-3-(3,4-dichloro-phenyl)-8-methyl-8-aza-bicyclo[3.2.1]octane]		15	20	
CC(C)[C@@H]1CC2CCC([C@@H]1COc1ccc(Cl)c(Cl)c1)N2C (stereo partly drawn) [Compound 16, (2R,3S)-2-(3,4-Dichloro-phenoxymethyl)-3-(2-propyl)-8-methyl-8-aza-bicyclo[3.2.1]octane fumaric acid salt]			0.72	> 1000
CC(C)C1CC2CCC(N2)C1COc1ccc(Cl)c(Cl)c1 [Compound of Example 10, (2R,3S)-2-(3,4-Dichloro-phenoxymethyl)-3-(2-propyl)-8-H-8-aza-bicyclo[3.2.1]octane fumaric acid salt]			9	260
